Data: article PMC5218480 (PLoS ONE, 2017)

System: MV-4-11 cells
Test: Gene expression microarray analysis (Affymetrix PrimeView) and GSEA
Type: cell-based, human
Parameters: RFU PODN (11730768_x_at) / Fold change /veh PODN (11730768_x_at) / RFU LINC00158 (11744669_a_at) / Fold change /veh LINC00158 (11744669_a_at) / RFU DUSP10 (11751237_a_at) / Fold change /veh DUSP10 (11751237_a_at) / RFU ID3 (11757404_x_at) / Fold change /veh ID3 (11757404_x_at) / RFU PLEKHG5 (11737974_s_at) / Fold change /veh PLEKHG5 (11737974_s_at) / RFU LRRC4B (11730491_at) / Fold change /veh LRRC4B (11730491_at) / RFU GIMAP4 (11747438_a_at) / Fold change /veh GIMAP4 (11747438_a_at) / RFU KRT8 (11758183_x_at) / Fold change /veh KRT8 (11758183_x_at) / RFU CNN1 (11734310_a_at) / Fold change /veh CNN1 (11734310_a_at) / RFU VPS37D (11726825_at) / Fold change /veh VPS37D (11726825_at) / RFU C10orf10 (11716522_x_at) / Fold change /veh C10orf10 (11716522_x_at) / RFU KIR2DL2 /// KIR2DL4 /// KIR2DL5A /// KIR2DL5B /// KIR2DS1 /// KIR2DS2 /// KIR2DS3 /// KIR2DS4 /// KIR3DL3 /// KIR3DL3 /// KIR3DS1 (11738374_at) / Fold change /veh KIR2DL2 /// KIR2DL4 /// KIR2DL5A /// KIR2DL5B /// KIR2DS1 /// KIR2DS2 /// KIR2DS3 /// KIR2DS4 /// KIR3DL3 /// KIR3DL3 /// KIR3DS1 (11738374_at) / RFU C1QL1 (11718748_at) / Fold change /veh C1QL1 (11718748_at) / RFU TMPRSS4 (11747572_a_at) / Fold change /veh TMPRSS4 (11747572_a_at) / RFU HAMP (11756126_x_at) / Fold change /veh HAMP (11756126_x_at) / RFU RNFT2 (11725882_a_at) / Fold change /veh RNFT2 (11725882_a_at) / RFU NR4A2 (11747474_a_at) / Fold change /veh NR4A2 (11747474_a_at) / RFU ABCC12 (11746883_a_at) / Fold change /veh ABCC12 (11746883_a_at) / RFU TMEM136 (11760407_x_at) / Fold change /veh TMEM136 (11760407_x_at) / RFU CLDN22 /// WWC2 (11732394_at) / Fold change /veh CLDN22 /// WWC2 (11732394_at) / RFU HLA-DPB1 (11760878_x_at) / Fold change /veh HLA-DPB1 (11760878_x_at) / RFU SPINT1 (11716480_a_at) / Fold change /veh SPINT1 (11716480_a_at) / RFU GAP43 (11754022_s_at) / Fold change /veh GAP43 (11754022_s_at) / RFU A4GNT (11735810_at) / Fold change /veh A4GNT (11735810_at) / RFU PRB3 (11715151_x_at) / Fold change /veh PRB3 (11715151_x_at) / RFU TUBB4B (11761932_at) / Fold change /veh TUBB4B (11761932_at) / RFU CAPN14 (11732068_a_at) / Fold change /veh CAPN14 (11732068_a_at) / RFU TMCC2 (11721928_a_at) / Fold change /veh TMCC2 (11721928_a_at) / RFU IRGQ (11745062_a_at) / Fold change /veh IRGQ (11745062_a_at) / RFU FAM174B (11720279_a_at) / Fold change /veh FAM174B (11720279_a_at) / RFU TMPRSS4 (11748680_a_at) / Fold change /veh TMPRSS4 (11748680_a_at) / RFU FAM212B (11763350_a_at) / Fold change /veh FAM212B (11763350_a_at) / RFU PLEKHG5 (11743358_a_at) / Fold change /veh PLEKHG5 (11743358_a_at) / RFU ZSCAN30 (11745921_a_at) / Fold change /veh ZSCAN30 (11745921_a_at) / RFU CMKLR1 (11741424_a_at) / Fold change /veh CMKLR1 (11741424_a_at) / RFU LOC101060620 /// MAPK8IP1 (11723275_at) / Fold change /veh LOC101060620 /// MAPK8IP1 (11723275_at) / RFU SPTSSB (11747773_x_at) / Fold change /veh SPTSSB (11747773_x_at) / RFU PRSS12 (11739890_at) / Fold change /veh PRSS12 (11739890_at) / RFU BIN1 (11741810_x_at) / Fold change /veh BIN1 (11741810_x_at) / RFU WNT11 (11732464_a_at) / Fold change /veh WNT11 (11732464_a_at) / RFU C10orf10 (11716521_a_at) / Fold change /veh C10orf10 (11716521_a_at) / RFU C5orf56 (11738089_at) / Fold change /veh C5orf56 (11738089_at) / RFU CYB561 (11721691_x_at) / Fold change /veh CYB561 (11721691_x_at) / RFU ANKRD19P (11752326_a_at) / Fold change /veh ANKRD19P (11752326_a_at) / RFU OR2T12 /// OR2T33 /// OR2T8 (11738714_s_at) / Fold change /veh OR2T12 /// OR2T33 /// OR2T8 (11738714_s_at) / RFU VCAN (11748164_a_at) / Fold change /veh VCAN (11748164_a_at) / RFU JSRP1 (11732532_at) / Fold change /veh JSRP1 (11732532_at) / RFU KRTAP10-11 (11738290_x_at) / Fold change /veh KRTAP10-11 (11738290_x_at) / RFU MYO3A (11730013_a_at) / Fold change /veh MYO3A (11730013_a_at) / RFU EBF3 (11725865_a_at) / Fold change /veh EBF3 (11725865_a_at) / RFU CAMK2N1 (11719241_x_at) / Fold change /veh CAMK2N1 (11719241_x_at) / RFU C5orf56 (11738088_a_at) / Fold change /veh C5orf56 (11738088_a_at) / RFU OLFML3 (11715873_a_at) / Fold change /veh OLFML3 (11715873_a_at) / RFU LOC100653217 /// NTM (11731650_a_at) / Fold change /veh LOC100653217 /// NTM (11731650_a_at) / RFU MAPK11 (11762145_a_at) / Fold change /veh MAPK11 (11762145_a_at) / RFU FIZ1 (11724087_x_at) / Fold change /veh FIZ1 (11724087_x_at) / RFU OASL (11726364_x_at) / Fold change /veh OASL (11726364_x_at) / RFU SOX15 (11748057_x_at) / Fold change /veh SOX15 (11748057_x_at) / RFU CD79A (11719716_a_at) / Fold change /veh CD79A (11719716_a_at) / RFU HIST1H1D (11736915_at) / Fold change /veh HIST1H1D (11736915_at) / RFU CASKIN2 (11723855_a_at) / Fold change /veh CASKIN2 (11723855_a_at) / RFU LOC730098 (11760151_x_at) / Fold change /veh LOC730098 (11760151_x_at) / RFU OR4N2 (11742367_at) / Fold change /veh OR4N2 (11742367_at) / RFU PRRT2 (11749266_a_at) / Fold change /veh PRRT2 (11749266_a_at) / RFU SNX32 (11753110_a_at) / Fold change /veh SNX32 (11753110_a_at) / RFU CDHR5 (11726645_a_at) / Fold change /veh CDHR5 (11726645_a_at) / RFU RCAN1 (11760418_a_at) / Fold change /veh RCAN1 (11760418_a_at) / RFU FAM167A (11723789_a_at) / Fold change /veh FAM167A (11723789_a_at) / RFU FAM26E (11764081_at) / Fold change /veh FAM26E (11764081_at) / RFU ISYNA1 (11749810_s_at) / Fold change /veh ISYNA1 (11749810_s_at) / RFU ACY1 (11761880_at) / Fold change /veh ACY1 (11761880_at) / RFU 11764098_at / Fold change /veh 11764098_at / RFU SAMD14 (11745864_x_at) / Fold change /veh SAMD14 (11745864_x_at) / RFU NPB (11741838_a_at) / Fold change /veh NPB (11741838_a_at) / RFU TMPRSS6 (11731388_a_at) / Fold change /veh TMPRSS6 (11731388_a_at) / RFU KRTAP10-2 (11738614_at) / Fold change /veh KRTAP10-2 (11738614_at) / RFU ARHGAP8 /// PRR5-ARHGAP8 (11727945_x_at) / Fold change /veh ARHGAP8 /// PRR5-ARHGAP8 (11727945_x_at) / RFU KRTAP5-7 /// NADSYN1 (11734609_at) / Fold change /veh KRTAP5-7 /// NADSYN1 (11734609_at) / RFU RASL12 (11751679_a_at) / Fold change /veh RASL12 (11751679_a_at) / RFU CDKN2B (11736163_a_at) / Fold change /veh CDKN2B (11736163_a_at) / RFU PRF1 (11729649_at) / Fold change /veh PRF1 (11729649_at) / RFU, ZNF638 /// ZNF638-IT1 / Fold change vs veh, ZNF638 /// ZNF638-IT1 / RFU, PANK3 / Fold change vs veh, PANK3 / RFU, SH3YL1 / Fold change vs veh, SH3YL1 / RFU, ZEB2 / Fold change vs veh, ZEB2 / RFU, NRIP1 / Fold change vs veh, NRIP1 / RFU, PTTG1IP / Fold change vs veh, PTTG1IP / RFU, CAPN2 / Fold change vs veh, CAPN2 / RFU, MED14 / Fold change vs veh, MED14 / RFU, SNORA58 / Fold change vs veh, SNORA58 / RFU, C1orf63 / Fold change vs veh, C1orf63 / RFU, LRRFIP1 / Fold change vs veh, LRRFIP1 / RFU, NDUFAF7 / Fold change vs veh, NDUFAF7 / RFU, SLC12A2 / Fold change vs veh, SLC12A2 / RFU, IBTK / Fold change vs veh, IBTK / RFU, ESF1 / Fold change vs veh, ESF1 / Fold change vs veh, TMEM50B / RFU, TAOK1 / Fold change vs veh, TAOK1 / RFU, ACBD3 / Fold change vs veh, ACBD3 / RFU, TMA16 / Fold change vs veh, TMA16 / RFU, RWDD3 / Fold change vs veh, RWDD3 / RFU, BCAT1 / Fold change vs veh, BCAT1 / RFU, EDEM3 / Fold change vs veh, EDEM3 / RFU, TMEM33 / Fold change vs veh, TMEM33 / RFU, WDR75 / Fold change vs veh, WDR75 / RFU, AHCTF1 / Fold change vs veh, AHCTF1 / RFU, TFRC / Fold change vs veh, TFRC / RFU, ZDHHC17 / Fold change vs veh, ZDHHC17 / RFU, NOM1 / Fold change vs veh, NOM1 / RFU, ARL8B / Fold change vs veh, ARL8B / RFU, ZBTB11 / Fold change vs veh, ZBTB11 / RFU, TAMM41 / Fold change vs veh, TAMM41 / RFU, KIAA1704 /// LOC100996395 / Fold change vs veh, KIAA1704 /// LOC100996395 / RFU, ING1 / Fold change vs veh, ING1 / RFU, TRMT61B / Fold change vs veh, TRMT61B / RFU, FUBP3 / Fold change vs veh, FUBP3 / RFU, TP53 / Fold change vs veh, TP53 / RFU, TNKS2 / Fold change vs veh, TNKS2 / RFU, ZFP14 / Fold change vs veh, ZFP14 / RFU, ACTR2 / Fold change vs veh, ACTR2 / RFU, PPP3R1 / Fold change vs veh, PPP3R1 / RFU, PIK3R1 / Fold change vs veh, PIK3R1 / RFU, HNRNPA1 / Fold change vs veh, HNRNPA1 / RFU, RNF170 / Fold change vs veh, RNF170 / RFU, ZNF28 / Fold change vs veh, ZNF28 / RFU, RNGTT / Fold change vs veh, RNGTT / RFU, OGT / Fold change vs veh, OGT / RFU, BRD1 / Fold change vs veh, BRD1 / RFU, MARS / Fold change vs veh, MARS / RFU, ZNF655 / Fold change vs veh, ZNF655 / RFU, FAHD1 / Fold change vs veh, FAHD1 / RFU, BDP1 / Fold change vs veh, BDP1 / RFU, LRRCC1 / Fold change vs veh, LRRCC1 / RFU, ARID1A / Fold change vs veh, ARID1A / RFU, ZNF146 / Fold change vs veh, ZNF146 / RFU, ZNF330 / Fold change vs veh, ZNF330 / RFU, GPN3 / Fold change vs veh, GPN3 / RFU, C9orf123 / Fold change vs veh, C9orf123 / RFU, N4BP2L2 / Fold change vs veh, N4BP2L2 / RFU, ARFIP1 / Fold change vs veh, ARFIP1 / RFU, FAM179B / Fold change vs veh, FAM179B / RFU, BCL10 / Fold change vs veh, BCL10 / RFU, UHRF1BP1L / Fold change vs veh, UHRF1BP1L / RFU, BET1 / Fold change vs veh, BET1 / RFU, CNOT2 / Fold change vs veh, CNOT2 / RFU, ZNF268 / Fold change vs veh, ZNF268 / Fold change vs veh, ZNF507 / RFU, DGCR2 / Fold change vs veh, DGCR2 / RFU, WDSUB1 / Fold change vs veh, WDSUB1 / Fold change vs veh, HSP90B1 /// MIR3652 / RFU, ADSS / Fold change vs veh, ADSS / RFU, GK / Fold change vs veh, GK / RFU, ZNF148 / Fold change vs veh, ZNF148 / RFU, TAF9 / Fold change vs veh, TAF9 / RFU, SLC1A5 / Fold change vs veh, SLC1A5 / RFU, SLMO2 / Fold change vs veh, SLMO2 / RFU, ABCC4 / Fold change vs veh, ABCC4 / RFU, LOC101060439 /// RAP1B / Fold change vs veh, LOC101060439 /// RAP1B / RFU, RFX7 / Fold change vs veh, RFX7 / RFU, GTPBP10 / Fold change vs veh, GTPBP10 / RFU, CNEP1R1 / Fold change vs veh, CNEP1R1 / RFU, BIVM-ERCC5 /// ERCC5 / Fold change vs veh, BIVM-ERCC5 /// ERCC5 / RFU, ILF3 / Fold change vs veh, ILF3 / RFU 11762660_at / Fold change /veh 11762660_at / RFU VCAN (11757783_s_at) / Fold change /veh VCAN (11757783_s_at) / RFU DDX43 (11728927_at) / Fold change /veh DDX43 (11728927_at) / RFU KRT8 (11758188_x_at) / Fold change /veh KRT8 (11758188_x_at) / RFU NKD1 (11759106_at) / Fold change /veh NKD1 (11759106_at) / RFU SRD5A1 (11742802_a_at) / Fold change /veh SRD5A1 (11742802_a_at) / RFU TPSAB1 /// TPSB2 (11721975_s_at) / Fold change /veh TPSAB1 /// TPSB2 (11721975_s_at) / RFU GSTM3 (11746129_a_at) / Fold change /veh GSTM3 (11746129_a_at) / RFU IL23R (11737362_x_at) / Fold change /veh IL23R (11737362_x_at) / RFU TMEM51 (11727254_a_at) / Fold change /veh TMEM51 (11727254_a_at) / RFU PIWIL2 (11732686_x_at) / Fold change /veh PIWIL2 (11732686_x_at) / RFU ORM1 (11744905_x_at) / Fold change /veh ORM1 (11744905_x_at) / RFU CCDC152 (11743942_at) / Fold change /veh CCDC152 (11743942_at) / RFU ECM1 (11717891_a_at) / Fold change /veh ECM1 (11717891_a_at) / RFU IL23R (11748794_a_at) / Fold change /veh IL23R (11748794_a_at) / RFU TNFAIP8L3 (11732012_x_at) / Fold change /veh TNFAIP8L3 (11732012_x_at) / RFU MBOAT4 (11741988_at) / Fold change /veh MBOAT4 (11741988_at) / RFU 11764193_at / Fold change /veh 11764193_at / RFU TMEM53 (11763286_at) / Fold change /veh TMEM53 (11763286_at) / RFU MAGEB2 (11727129_at) / Fold change /veh MAGEB2 (11727129_at) / RFU TMEM200A (11744735_a_at) / Fold change /veh TMEM200A (11744735_a_at) / RFU CCDC152 (11751479_a_at) / Fold change /veh CCDC152 (11751479_a_at) / RFU FAM211A (11726209_a_at) / Fold change /veh FAM211A (11726209_a_at) / RFU RGS16 (11746705_a_at) / Fold change /veh RGS16 (11746705_a_at) / RFU VCAN (11755009_s_at) / Fold change /veh VCAN (11755009_s_at) / RFU RHOB (11743442_s_at) / Fold change /veh RHOB (11743442_s_at) / RFU RGS16 (11720943_a_at) / Fold change /veh RGS16 (11720943_a_at) / RFU RGS16 (11720944_at) / Fold change /veh RGS16 (11720944_at) / RFU, VPS4B / Fold change vs veh, VPS4B / RFU, CREB1 / Fold change vs veh, CREB1 / RFU, DNAJC13 / Fold change vs veh, DNAJC13 / RFU, GNAQ / Fold change vs veh, GNAQ / RFU, CDK5R1 / Fold change vs veh, CDK5R1 / RFU, ZRANB3 / Fold change vs veh, ZRANB3 / RFU, CUL4A / Fold change vs veh, CUL4A / RFU, CCNY / Fold change vs veh, CCNY / RFU, UFL1 / Fold change vs veh, UFL1 / RFU, COG3 / Fold change vs veh, COG3 / RFU, DIAPH2 / Fold change vs veh, DIAPH2 / RFU, SKA2 / Fold change vs veh, SKA2 / RFU, AFF3 / Fold change vs veh, AFF3 / RFU, LMF1 / Fold change vs veh, LMF1 / RFU, IPO11 / Fold change vs veh, IPO11 / RFU, DFFB / Fold change vs veh, DFFB / RFU, FOXP1 / Fold change vs veh, FOXP1 / RFU, CARD8 / Fold change vs veh, CARD8 / RFU, STRN3 / Fold change vs veh, STRN3 / RFU, ADK / Fold change vs veh, ADK / RFU, RASSF2 / Fold change vs veh, RASSF2 / RFU, WIPF1 / Fold change vs veh, WIPF1 / RFU, LARP1B / Fold change vs veh, LARP1B / RFU, RASA1 / Fold change vs veh, RASA1 / RFU, RB1 / Fold change vs veh, RB1 / RFU, PPFIA1 / Fold change vs veh, PPFIA1 / RFU, MAT2A / Fold change vs veh, MAT2A / RFU, CCT5 / Fold change vs veh, CCT5 / RFU, WDR92 / Fold change vs veh, WDR92 / RFU, CUX1 / Fold change vs veh, CUX1 / RFU, TTC7A / Fold change vs veh, TTC7A / RFU, TMEM135 / Fold change vs veh, TMEM135 / RFU, DEPTOR / Fold change vs veh, DEPTOR / RFU, CPM / Fold change vs veh, CPM / RFU, DNAJB6 / Fold change vs veh, DNAJB6 / RFU, CACNA2D3 / Fold change vs veh, CACNA2D3 / RFU, DTX4 / Fold change vs veh, DTX4 / RFU, TFCP2 / Fold change vs veh, TFCP2 / RFU, GMCL1 /// GMCL1P1 / Fold change vs veh, GMCL1 /// GMCL1P1 / RFU, AEBP2 / Fold change vs veh, AEBP2 / RFU, SNHG1 /// SNORD22 /// SNORD25 /// SNORD26 /// SNORD27 /// SNORD28 /// SNORD29 /// SNORD31 / Fold change vs veh, SNHG1 /// SNORD22 /// SNORD25 /// SNORD26 /// SNORD27 /// SNORD28 /// SNORD29 /// SNORD31 / Fold change (Aza/veh), C12orf56 (ProbeSet 11735607_a_at) / Fold change (ACY-1035/veh), C12orf56 (ProbeSet 11735607_a_at) / Fold change (Aza/veh), FGFR1OP (ProbeSet 11751329_s_at) / Fold change (ACY-1035/veh), FGFR1OP (ProbeSet 11751329_s_at) / Fold change (Aza/veh), VPS36 (ProbeSet 11739960_a_at) / Fold change (ACY-1035/veh), VPS36 (ProbeSet 11739960_a_at) / RFU SYPL1 (11715823_x_at) / Fold change /veh SYPL1 (11715823_x_at) / RFU IGFBP7 (11715501_s_at) / Fold change /veh IGFBP7 (11715501_s_at) / RFU REEP3 (11722064_at) / Fold change /veh REEP3 (11722064_at) / RFU IGLL1 (11728026_x_at) / Fold change /veh IGLL1 (11728026_x_at): dose or concentration left out as unconfirmed
Conditions: MV-4-11 cells, 48 hours

Nc1ccc(-c2cccs2)cc1NC(=O)c1ccc2c(c1)cc(C1CC1)n2CCN1CCOCC1 [ACY-1035]
Fold change /veh ANKRD19P (11752326_a_at): 1.02
